{"source": "patent US20090069237A1", "about": "“METHODS AND COMPOSITIONS FOR TREATING CONDITIONS” (priority 2007, published 2009)", "key": {"[1]": {"tested_on": "Sauromatum guttatum appendix", "assay": "Heat production by Sauromatum guttatum appendix sections, thermocouple recording", "settings": "second experiment, up to 50 μM, data not shown", "protocol": "In one example, using Sauromatum guttatum as the experimental module, on the day of inflorescence-opening, the Sauromatum appendix (a 20-40 cm-long, slender organ) becomes warm reaching a 32° C. temperature (Skubatz et al., 1991, Plant Physiol. 95:1084-1088). The heat generated by the appendix is generated by the mitochondria. This mitochondrial activity can be triggered by the addition of phenolic compounds, including but not limited to, salicylic acid, aspirin, and 2,6-dihydroxybenzoic acid. Test agents can be applied to the plant and the plant's temperature may be monitored in vivo.\nFIG. 4 illustrates modulation of heat generated by aspirin (ASA) in Sauromatum guttatum appendix in the presence of various opioid peptides and the Alzheimer's peptide, Aβ 1-42. One day before heat-production, sections of the appendix were placed in different aqueous solutions containing ASA with or without an opioid peptide. […] Temperature was recorded with thermocouples attached to the section every 5 min. […]\nFIG. 5 illustrates modulation of heat generated by salicylic acid (SA) in the presence of human opioid peptides (β-Endorphin, SEQ ID NO: 19 and Neuropeptide AF, SEQ ID NO: 44) and, the Alzheimer's peptide, Aβ 1-42, SEQ ID NO: 49, and, a plant virulent bacterial pathogen (Pst DC3000). […] Temperature was recorded with thermocouples attached to the sections every 5 min. […]"}, "[2]": {"tested_on": "Pseudomonas syringae pv tomato, DC3000", "assay": "Arabidopsis inoculated with virulent pathogen Pst DC3000, disease symptoms", "assay_type": "in vivo, Arabidopsis ecotype Columbia (Col-0)", "settings": "20 μl salicylic acid 1 mM and 20 μl SEQ ID NO: 15 applied together to the leaves", "protocol": "Seeds of Arabidopsis ecotype Columbia (Col-0) were planted in potting soil. Plants were cultivated in a growth chamber with 10-h d (200 μmol m^−2s^−1 at 22° C.) and 14-h night (18° C.) cycles and 80% RH. Once a week plants were supplied with water and modified one-half strength Hoagland nutrient solution: 2 mM KNO 5 mM Ca(NO3)2 and trace elements, pH 7.\nA virulent plant pathogen, Pst Pseudomonas syringae pv tomato, DC3000 was grown at 28° C. on King's medium B containing 40 mg/L tetracycline. Plants were inoculated with 1×10^7 cfu/ml of the pathogen in 0.01% Silwet L77 (v/v) (a surfactant) and distilled water 5 weeks after sowing. The bacterial suspension or a control solution (0.01% Silwet L77 in water) was then sprayed on the plant once.\nDisease symptoms in Arabidopsis are water-soaked, spreading lesions, sometimes surrounded by chlorotic margin that eventually lead to yield loss and plant death.\nTo test the efficacy of SEQ ID NO: 15, some healthy and some disease plants were sprayed with salicylic acid in 0.01%. Silwet L77; some healthy and some disease plants were sprayed with SEQ ID NO: 15 in 0.01%. Silwet L77, and some healthy and some disease plants were sprayed with salicylic acid in combination with SEQ ID NO: 15 in 0.01%. Silwet L77. A control group of some healthy and some disease plants were sprayed with water in 0.01%. Silwet L77. […]"}, "[3]": {"settings": "rat, in vivo", "excerpt": "Pain is basically managed by two classes of drugs."}, "[4]": {"assay_type": "physicochemical", "protocol": "The test article was SEQ ID NO: 1, a white powder, which was delivered in 0.9% saline. The test article formulations were prepared on the day of study and kept at room temperature until dosing. 100 mg/kg at 1 mL/kg=100 mg/mL 1.4 mL of saline added to 141.5 mg of test article, soluble."}}, "note": "Peptide text beside a SMILES is read from it."}
{"molecule": "FLPSEFGVDVDR [SEQ ID NO: 2]", "values": [{"measurement": "heat generation by the peptide", "setting": "[1]", "result": "did not generate heat"}]}
{"molecule": "YGGFL [SEQ ID NO: 15]", "values": [{"measurement": "systemic resistance to the virulent bacteria", "setting": "[2]", "result": "enough to trigger systemic resistance"}]}
{"molecule": "O=C(O)c1ccccc1O", "note": "[salicylic acid]", "values": [{"measurement": "systemic resistance to the virulent bacteria", "setting": "[2]", "result": "enough to trigger systemic resistance"}]}
{"molecule": "CC(C)C[C@H](NC(=O)[C@@H](N)Cc1ccccc1)C(=O)N1CCC[C@H]1C(=O)N[C@@H](CO)C(=O)O", "note": "[SEQ ID NO: 1, Phe-Leu-Pro-Ser] (H-FLPS-OH; N-terminus and C-terminus assumed)", "values": [{"measurement": "effect on brain function", "setting": "[3]", "result": "does not adversely affect brain function"}, {"measurement": "feeding behavior", "setting": "[3]", "result": "did not invoke an abnormal feeding behavior"}, {"measurement": "solubility in saline", "setting": "[4]", "result": "soluble"}]}
